These results are taken from publication PMC9785777, “Antidiabetic Potential of Novel 1,3,5-Trisubstituted-2-Thioxoimidazloidin-4-One Analogues: Insights into α-Glucosidase, α-Amylase, and Antioxidant Activities” (Pharmaceuticals, 2022).

Each structure is given as a SMILES string. Values after ≈ are worked out from the molar mass of the structure shown. Values joined by “and” are separate entries in the source; they are usually repeats but may differ in a detail not shown here. Identical values can stand only once.

The target in series [1] is T1, α-glucosidase enzyme (EC3.2.1.20) (Saccharomyces cerevisiae, UniProt P53341).
T1 construct: purchased Sigma-Aldrich
T1 sequence (P53341 whole entry): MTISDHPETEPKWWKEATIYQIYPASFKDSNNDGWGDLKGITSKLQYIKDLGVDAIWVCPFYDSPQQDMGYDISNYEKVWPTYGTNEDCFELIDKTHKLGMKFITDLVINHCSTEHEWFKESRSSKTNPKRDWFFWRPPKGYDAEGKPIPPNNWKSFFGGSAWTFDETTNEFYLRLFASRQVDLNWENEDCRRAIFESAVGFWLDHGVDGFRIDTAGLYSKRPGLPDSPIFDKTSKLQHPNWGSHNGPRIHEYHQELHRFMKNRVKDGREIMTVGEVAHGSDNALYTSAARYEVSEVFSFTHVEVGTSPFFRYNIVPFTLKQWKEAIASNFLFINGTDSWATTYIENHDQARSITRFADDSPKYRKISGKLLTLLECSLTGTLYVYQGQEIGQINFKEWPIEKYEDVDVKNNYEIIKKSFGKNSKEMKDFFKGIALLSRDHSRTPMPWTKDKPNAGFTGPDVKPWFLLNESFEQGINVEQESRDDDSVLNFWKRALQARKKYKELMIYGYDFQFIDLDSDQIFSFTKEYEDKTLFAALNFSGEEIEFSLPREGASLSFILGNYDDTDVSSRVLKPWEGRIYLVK
Description: biochemical. The conditions noted are these: read-out: % inhibition of α-glucosidase. The text has this: The α-glucosidase enzyme is mainly expressed in the small intestine and catalyzes the breakdown of carbohydrates into glucose units by cleaving the glucosidic bonds. α-Glucosidase blockers are the first-line drugs for the treatment of non-insulin-dependent DM by suppressing carbohydrate hydrolysis and consequently retarding glucose absorption into the bloodstream and reducing postprandial hyperglycemia. α-Glucosidase is, thus, considered to be an attractive pharmaceutical target for the treatment of […] via control of the blood glucose levels. Accordingly, there is a continuous need to develop a potential class of α-glucosidase inhibitors. Toward this aim, we explored the potency of the synthesized compounds to inhibit the activity of α-glucosidase. We examined the inhibitory activity of the synthesized compounds following the reported assay by Peytam et al.. Thus, the compounds at different concentrations (1000, 100, 10, and 1 µg/mL) were incubated with α-glucosidase and subsequently […] was added and the absorbance was monitored at 405 nm. […] To further investigate the structural aspects of 1,3-thiohydantoin scaffold, a substitution at the N1-position with the methyl-proponate group was performed. […] Nevertheless, it has adverse gastrointestinal effects including diarrhea and flatulence. Thus, the discovery of a novel class of potent antidiabetic agents is urgently demanded.
An ELISA reader was used to assess the inhibition of α-glucosidase by 1,3,5-trisubstituted-2-thioxoimidazolidin-4-ones derivatives at various doses (1000, 100, 10, and 1 µg/mL) according to Peytam et al.. […] Then, the substrate (25 µL, 4 mM) was added to the mentioned mixture and allowed to incubate at 37 °C for 20 min. Finally, the change in absorbance at 405 nm was monitored using a Cytation 3 hybrid microplate reader (BioTek, Winooski, VT, USA). […] GraphPad prism 6.0 was used to calculate the IC50 values of the investigated compounds from the nonlinear regression curve (Systat Software, Inc. Tools for Science) (https://www.graphpad.com/scientific-software/prism/ (accessed on 1 September 2022)).

The target in another series is T2, α-amylase enzyme (Sus scrofa, UniProt P00690).
T2 sequence (P00690 16-511): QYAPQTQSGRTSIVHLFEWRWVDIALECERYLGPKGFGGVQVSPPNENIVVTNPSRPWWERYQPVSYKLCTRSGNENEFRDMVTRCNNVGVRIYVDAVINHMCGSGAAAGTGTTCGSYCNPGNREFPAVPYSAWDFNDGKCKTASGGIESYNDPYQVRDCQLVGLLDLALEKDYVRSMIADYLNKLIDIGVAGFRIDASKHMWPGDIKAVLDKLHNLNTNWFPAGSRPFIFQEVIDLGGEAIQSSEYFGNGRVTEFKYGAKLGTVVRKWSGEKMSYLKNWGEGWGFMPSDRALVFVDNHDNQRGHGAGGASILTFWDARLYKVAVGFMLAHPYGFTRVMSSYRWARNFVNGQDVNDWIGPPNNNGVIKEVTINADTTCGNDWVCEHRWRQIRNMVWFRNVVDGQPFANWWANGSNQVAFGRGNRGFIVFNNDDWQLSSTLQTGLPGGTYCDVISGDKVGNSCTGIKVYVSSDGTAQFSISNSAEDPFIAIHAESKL
Description: α-amylase inhibition assay (DNSA, absorbance 595 nm). The format is biochemical. The text has this:
Furthermore, pancreatic α-amylase mediates the activity of glycoproteins in the small intestine membrane, such as sucrase-isomaltase and sodium/glucose cotransporter 1, via binding with N-linked oligosaccharides. […] However, attempts to find novel antagonists with enhanced effectiveness and minimum adverse effects are still worth investigating. In this regard, we examined the inhibitory activity of the synthesized compounds 4a–b, 5a–b, and 7a–b toward α-amylase activity. Therefore, compounds at different concentrations (100, 10, 1, and 0.1 µg/mL) were mixed with the α-amylase enzyme and subsequently 3,5-dinitrosalicylic acid was added and the absorption was assessed at 595 nm. […] To date, several potent natural and synthetic antagonists with dual inhibitory activities toward α-amylase and α-glucosidase enzymes have been reported which succeeded in being applied in clinics.
The inhibitory activity of synthesized 1,3,5-trisubstituted-2-thioxoimidazolidin-4-ones derivatives toward α-amylase activity was determined by ELISA analysis according to Bernfeld and Colowick. The α-amylase enzyme was provided by Sigma-Aldrich and the stock solution was prepared in DMSO (10 mg/10 mL). […] Briefly, α-amylase enzyme (100 mg, 1 unit per mL) was mixed in 100 mL of a 20 mM sodium phosphate buffer (pH 6.9). […] After incubation, 100 μL of the DNSA reagent was added to this mixture, and then heated in a water bath at 85 °C for 15 min. The reaction mixture was taken from the water bath, cooled, and the absorbance value at 595 nm was assessed. Individual blanks were created in order to adjust the background absorbance. A control experiment was carried out following the same protocol using DMSO. The α-amylase enzyme activity and percentage of inhibition were determined using the following formula: % Inhibition=control−test/control×100

The nature of series [2]: ROS-generation assay (H2O2 generated with DTT, HRP-phenol red, 610 nm). The conditions noted are these: 50 µM compound, incubated with DTT; control 90.74±5.54. The text has this: The […] metabolites and enzymes (such as NADPH oxidase, lipoxygenase, and cytochrome P450) act together to mediate the production of ROS and diminish the counteractive oxidative damage. ROS can cause damage to DNA, lipid, proteins, and nucleic acids and the destruction of cell components leading to cell death. Toward this end, we aimed to investigate whether the mode of action of this class of compounds involved the generation of ROS. ROS-producing compounds upon reaction with a reducing agent in the presence of oxygen afford superoxide O^•−2 radical and hydrogen peroxide (H2O2) which could be quantitively estimated. Thus, compounds 5a and 7a (at 50 µM concentration) were incubated with the reducing agent dithiothreitol (DTT) and the generated H2O2 was subsequently assessed by monitoring the oxidation of phenol red in the presence of horseradish peroxidase (HRP) at the absorbance of 610 nm. We first examined the validity of the assay by examining the activity of a known ROS-producing standard drug. In our study, Celecoxib was utilized as a reference pharmacological ROS-generating drug. […] Next, we evaluated the potency of compounds 5a and 7a to produce ROS at a 50 µM concentration.
According to Nasiri et al., the antioxidant activity of compounds (5a, 7a) and Celecoxib was measured by an evaluation of ROS-generation using ELISA analysis. Three different solutions were prepared for the in vitro assessment of ROS-generation: phenol red, sodium hydroxide solution, and DTT. All reagents were provided by Sigma-Aldrich. A stock solution of DTT (20 mM) was prepared by dissolving […] of DTT in 500 µL of Hank’s Balanced Salt Solution (HBSS), and the obtained solution was preserved at −20 °C. The stock solution was further diluted with HBSS to 0.8 mM for each measurement. The HRP-PR solution was prepared by dissolving 1.8 mg of horseradish peroxidase (HRP) and 3 mg of phenol red (PR) in 10 mL of HBSS. […] After incubation, 1N NaOH was applied, and the absorbance at 610 nm was measured using a plate reader spectrometer. […]

A short description of series [3]: MTT cytotoxicity assay against WI-38 cells. The format is cell-based, human. Conditions: human, WI-38 lung fibroblast cells. How it is done:
(§1) Based on the promising dual inhibitory activity of this class of compounds, we next evaluated the cytotoxicity of compounds 5a and 7a against human lung fibroblast cell line WI-38 in order to gain insights into the toxicity of this class of compounds utilizing the MTT assay. In this regard, lung fibroblast cells were cultured and treated with compounds 5a and 7a for 48 h at different concentrations (1000, 250, 63, 16, and 4 µg/mL). After the cells were washed, they were treated with MTT solution and the absorption was assessed using an ELISA reader at 570 nm. As a pharmacological reference drug, Celecoxib, a well-known anti-inflammatory agent, was utilized.
(§2) The cytotoxicity of compounds 5a and 7a was assessed toward the human lung fibroblast WI-38 cell line (Sigma-Aldrich, St. Louis, MO, USA, product number 90020107) using MTT assay. The MTT test assay was performed in accordance with the previously stated procedure. MTT (3-(4,5-dimethylthiazol-2-yl)-2,5-diphenyl tetrazolium bromide; Sigma catalog no. M2128) was dissolved in PBS at 5 mg/mL and processed to eliminate the insoluble residues. Briefly, cells (10^5 cells/well) were treated for 48 h at 37 °C with compounds 5a and 7a at varied doses (1000, 250, 63, 16, and 4 µg/mL, DMSO stock solutions) in a 5% CO2 atmosphere. In our assessment, celecoxib, an inhibitor of cyclooxygenase 2, was employed as a standard reference drug. Following cell washing, MTT solution (180 µL/well) was applied to the cells and incubated at 37 °C for 4 h with shaking, and the absorbance was measured using an ELISA reader at 570 nm.
In general terms: Tetrazolium assays rely on reduction of a dye to a coloured formazan, in cell work by metabolically active cells.

Series [4] deals with human lung fibroblast WI-38 cell line. Nature of the series: MTT cytotoxicity assay against WI-38 cells. The format is cell-based. The conditions noted are these: MTT, 48 h. The method, then:
as §1, §2

The target in the next series is α-amylase. The conditions noted are these: cited from earlier work.
The target of a further series is α-glucosidase. Conditions: cited from earlier work.
The subject of the next series is INS-1 cells. Also on record: method as in PMID 10918947. The conditions noted are these: 10 µg/mL, in the presence of 5.6 mmol/L glucose ref 36; cited from earlier work.

Broadly, the inhibition is the drop in the measured response relative to a control, in per cent. With `C[C@H]1O[C@H](O[C@H]2[C@H](O)[C@@H](O)[C@@H](O[C@H]3[C@H](O)[C@@H](O)C(O)O[C@@H]3CO)O[C@@H]2CO)[C@H](O)[C@@H](O)[C@@H]1N[C@H]1C=C(CO)[C@@H](O)[C@H](O)[C@H]1O` (stereo partly drawn) [Acarbose, reference compound], in series [1], the inhibition at 1 µg/mL amounted to 31.8%, the inhibition at 10 µg/mL stood at 58.4%, the inhibition at 100 µg/mL amounted to 76.9% and the inhibition at 1000 µg/mL is 88.4%. Further, the “% inhibition of α-amylase” value at α-amylase enzyme (0.1 µg/mL (log -1)) turned out to be 37.2%. Further, the “% inhibition of α-amylase” value at α-amylase enzyme (1 µg/mL (log 0)) is 58.3%. For the same compound, the “% inhibition of α-amylase” value at α-amylase enzyme (10 µg/mL (log 1)) is reported as 80.3%. Moreover, at α-amylase enzyme (100 µg/mL (log 2)), the “% inhibition of α-amylase” value is 92.1%.
For orientation: viability means a per cent measure of how many cells are alive, often set against a control. In general, IC50 refers to the concentration at which inhibition is half-maximal. For `Cc1ccc(-c2cc(C(F)(F)F)nn2-c2ccc(S(N)(=O)=O)cc2)cc1` [Celecoxib, reference compound], in series [2], the “ROS produced (generated H2O2)” value was 171.6 pg/mL and 171.6 ± 1.89 pg/mL. The viability at 48 h, 4 µg/mL in series [3] (4 µg/mL (log conc. 0.602)) was determined as 67.3%. The same compound gave a viability at 48 h, 16 µg/mL in series [3] (16 µg/mL (log conc. 1.204)) of 61.7%. The compound also registered a viability at 48 h, 63 µg/mL in series [3] (63 µg/mL (log conc. 1.799)) of 54.2%. Besides, the viability at 48 h, 250 µg/mL in series [3] (250 µg/mL (log conc. 2.398)) worked out at 43%. The viability at 48 h, 1000 µg/mL in series [3] (1000 µg/mL (log conc. 3)) came to 35.4%. In series [3] (MTT), this compound gave an IC50 at 48 h of 93 µg/mL (≈ 244 µM). Besides, the “WI-38 cytotoxicity IC50” value in series [4] stood at 93.054 µg/mL.
Regarding `O=C1CNC(=S)N1C(=O)c1cc([N+](=O)[O-])cc([N+](=O)[O-])c1` [Compound 3j], the figures for the concentration for half-maximal inhibition (IC50) at α-amylase (read-out: IC50 toward α-amylase enzyme) and on α-glucosidase (read-out: IC50 toward α-glucosidase enzyme) were 8.2 µM and 51 µM, respectively.
For `CN1C(=O)/C(=C/c2ccc(-c3cc(=O)c4ccccc4o3)cc2)N(C)C1=S` [Compound 9], in the series with INS-1 cells, the “increase of insulin release as compared to control” value was 40%.
Regarding `O=C1CNC(=S)N1` [unsubstituted-2-thiohydantoin, 2-thiohydantoin], the “IC50 toward α-amylase activity” value on α-amylase is 410.35 µg/mL (≈ 3530 µM). The “IC50 toward α-glucosidase activity” value on α-glucosidase is reported as 356.22 µg/mL (≈ 3070 µM).
